Patent US9850283B2, “Macrocyclic inhibitors of the PD-1/PD-L1 and CD80(B7-1)/PD-L1 protein/protein interactions” (BRISTOL-MYERS SQUIBB COMPANY, priority 2013, dated 2017)
Where two headings read alike, the source gives them in different places. Positions of bridges follow the written chain, without caps; N, C: chain ends. Non-standard residues stand in square brackets, D forms with d. Residues, ends and D or L forms follow the SMILES beside them. *: point of attachment. Phe(3,4,5-F3) = N[C@@H](Cc1cc(F)c(F)c(F)c1)C(=O)O; Phe(4-Me) = Cc1ccc(C[C@H](N)C(=O)O)cc1; Pro(4R-NH2) = N[C@H]1CN[C@H](C(=O)O)C1; d(cisHyp) = O=C(O)[C@H]1C[C@@H](O)CN1; Cyclobutanecarbonyl = O=C(C1CCC1)*; NMeF = CN[C@@H](Cc1ccccc1)C(=O)O; NMeNle = CCCC[C@H](NC)C(=O)O; NMeA = CN[C@@H](C)C(=O)O; dThz = O=C(O)[C@H]1CSCN1; Dab = NCC[C@H](N)C(=O)O; dAze = O=C(O)[C@H]1CCN1; Sar = CNCC(=O)O

Legend:
[1] = target: T1, LK35.2-hPD-L1 cells / PE-labeled PD-1-Ig (Homo sapiens, UniProt Q9NZQ7); assay: LK35.2-hPD-L1 cell binding high-content screening assay; type: cell-based
T1 construct: expressed in transfected cells; host or cells: LK35.2 mouse B cell line
In short: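 Binding of PE-conjugated human PD-1-Ig (1 nM final) to human PD-L1 stably expressed on a mouse B-cell line (LK35.2) was measured by high-content imaging after washes. Compound and labeled PD-1-Ig were co-incubated 1 h at 37 °C with cells in RPMI/10% FCS.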

[2] = target: T2, Human PD-L1/PD-1 (Homo sapiens, UniProt Q9NZQ7); assay: HTRF PD-1-Ig/PD-L1-His binding assay (human PD-L1)
T2 construct: made in house; host or cells: HEK293T
In short: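 Steps: truncated PD-1-Ig and PD-L1-His fusions are incubated in dPBS containing 0.1% (w/v) BSA and 0.05% (v/v) Tween-20. Detection antibodies are then added (Eu cryptate anti-Ig at 1 nM final, APC anti-His at 20 nM final), and time-resolved FRET is measured.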

[3] = cluster symbol, cell line of CBA not given (LK35.2-hPD-L1 or 293T-hPD-L1), read-out: CBA IC50 cluster
[4] = cluster symbol, read-out: HTRF IC50 cluster
[5] = cell binding assay, cell line not given, cluster symbol, read-out: CBA IC50 cluster

T2 sequence (Q9NZQ7 with tags, fused parts or gaps): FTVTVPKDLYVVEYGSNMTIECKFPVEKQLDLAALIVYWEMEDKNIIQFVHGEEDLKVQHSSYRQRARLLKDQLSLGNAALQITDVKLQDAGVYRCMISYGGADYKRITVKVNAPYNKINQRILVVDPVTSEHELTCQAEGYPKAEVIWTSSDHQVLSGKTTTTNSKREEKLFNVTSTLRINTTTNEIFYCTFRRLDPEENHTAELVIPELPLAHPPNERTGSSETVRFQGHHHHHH
T1 sequence (Q9NZQ7 19-290): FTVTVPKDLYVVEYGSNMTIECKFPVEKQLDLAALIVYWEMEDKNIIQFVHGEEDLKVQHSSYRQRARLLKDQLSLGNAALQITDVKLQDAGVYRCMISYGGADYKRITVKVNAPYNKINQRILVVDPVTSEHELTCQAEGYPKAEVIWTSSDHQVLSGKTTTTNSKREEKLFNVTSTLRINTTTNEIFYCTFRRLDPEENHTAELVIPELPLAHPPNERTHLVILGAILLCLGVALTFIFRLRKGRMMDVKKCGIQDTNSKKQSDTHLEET

| IC50 [1, 3] | IC50 [2, 4] | IC50 ([1]; cell binding assay, cell line not given, value given instead of cluster, read-out: CBA IC50 value) | IC50 ([2]; value given instead of cluster, read-out: HTRF IC50 value) | IC50 [1, 5] | Compound |
| --- | --- | --- | --- | --- | --- |
| 4.78 to 72.9 nM | 6.76 to 30.3 nM | – | – | – | CCCC[C@H]1C(=O)N(C)CC(=O)N[C@@H](CC(=O)O)C(=O)N[C@@H](C(C)C)C(=O)N(C)[C@@H](Cc2ccccc2)C(=O)N[C@@H](Cc2ccc(O)cc2)C(=O)N(C)CC(=O)N[C@@H](Cc2c[nH]c3ccccc23)C(=O)N[C@@H](Cc2ccc(O)cc2)C(=O)N[C@@H](CC(C)C)C(=O)N[C@H](C(=O)NCC(N)=O)CSCC(=O)N[C@@H](Cc2ccc(C)cc2)C(=O)N(C)[C@@H](Cc2ccccc2)C(=O)N1C [Example 3094] ({CH2CO}-[Phe(4-Me)][NMeF][NMeNle][Sar]DV[NMeF]Y[Sar]WYLCG-NH2; thioether N-13) |
| – | – | 3.9 nM | 6.1 nM | – | CCCC[C@H]1C(=O)N2CSC[C@@H]2C(=O)N[C@@H](CC(=O)O)C(=O)N[C@@H](C(C)C)C(=O)N(C)[C@@H](Cc2ccccc2)C(=O)N[C@@H](Cc2ccc(O)cc2)C(=O)N(C)CC(=O)N[C@@H](Cc2c[nH]c3ccccc23)C(=O)N[C@@H](Cc2ccc(O)cc2)C(=O)N[C@@H](CC(C)C)C(=O)N[C@H](C(=O)NCC(N)=O)CSCC(=O)N[C@@H](Cc2ccccc2)C(=O)N(C)[C@@H](Cc2ccccc2)C(=O)N1C [Example 3600] ({CH2CO}-F[NMeF][NMeNle][dThz]DV[NMeF]Y[Sar]WYLCG-NH2; thioether N-13) |
| > 74.3 nM | > 30.5 nM | – | – | – | CC(C)C[C@@H]1NC(=O)[C@H](Cc2cnc[nH]2)NC(=O)[C@@H]2CCCN2C(=O)[C@H](CC(N)=O)NC(=O)[C@H](C)N(C)C(=O)[C@H](Cc2ccccc2)NC(=O)CSC[C@@H](C(=O)NCC(N)=O)NC(=O)[C@H](CCCNC(=N)N)NC(=O)[C@H](C)N(C)C(=O)[C@H](CCNC(=O)C2CCC2)NC(=O)[C@H](Cc2c[nH]c3ccccc23)NC(=O)[C@H](CO)NC(=O)[C@H](Cc2c[nH]c3ccccc23)NC(=O)CN(C)C1=O [Example 1034] ({CH2CO}-F[NMeA]NPHL[Sar]WSW[Dab](Cyclobutanecarbonyl)[NMeA]RCG-NH2; thioether N-14) |
| 4.78 to 72.9 nM | 6.76 to 30.3 nM | – | – | – | CCCC[C@H]1C(=O)N(C)CC(=O)N[C@@H](CC(=O)O)C(=O)N[C@@H](C(C)C)C(=O)N(C)[C@@H](Cc2ccccc2)C(=O)N[C@@H](Cc2ccc(O)cc2)C(=O)N(C)CC(=O)N[C@@H](Cc2c[nH]c3ccccc23)C(=O)N[C@@H](Cc2ccc(O)cc2)C(=O)N[C@@H](Cc2c[nH]cn2)C(=O)N[C@H](C(=O)NCC(N)=O)CSCC(=O)N[C@@H](Cc2ccccc2)C(=O)N(C)[C@@H](Cc2ccccc2)C(=O)N1C [Example 3165] (HELM PEPTIDE1{[O=C(C[*:3])[*:2]].F.[meF].[CCCC[C@@H](C(=O)[*:2])N(C)[*:1]].[Sar].D.V.[meF].Y.[Sar].W.Y.H.C.G.[am]}$PEPTIDE1,PEPTIDE1,1:R3-14:R3$$$V2.0) |
| – | > 30.5 nM | – | – | > 74.3 nM | CCCC[C@H]1C(=O)N(C)CC(=O)N[C@@H](CC(=O)O)C(=O)N[C@@H](CCC)C(=O)N(C)[C@@H](Cc2ccccc2)C(=O)N[C@@H](Cc2ccc(O)cc2)C(=O)N(C)CC(=O)N[C@@H](Cc2c[nH]c3ccccc23)C(=O)N[C@@H](Cc2ccc(O)cc2)C(=O)N[C@@H](CC(C)C)C(=O)N[C@H](C(=O)NCC(N)=O)CSCC(=O)N[C@@H](Cc2ccccc2)C(=O)N(C)[C@@H](Cc2ccccc2)C(=O)N1C [Example 3525] (HELM PEPTIDE1{[O=C(C[*:3])[*:2]].F.[meF].[CCCC[C@@H](C(=O)[*:2])N(C)[*:1]].[Sar].D.[Nva].[meF].Y.[Sar].W.Y.L.C.G.[am]}$PEPTIDE1,PEPTIDE1,1:R3-14:R3$$$V2.0) |
| 0.158 to 4.71 nM | 0.385 to 6.74 nM | – | – | – | CCCC[C@H]1C(=O)N2C[C@H](O)C[C@@H]2C(=O)N2C[C@H](N)C[C@H]2C(=O)N[C@@H](C(C)C)C(=O)N(C)[C@@H](Cc2ccccc2)C(=O)N[C@@H](Cc2ccc(O)cc2)C(=O)N2CC[C@@H]2C(=O)N[C@@H](Cc2c[nH]c3ccccc23)C(=O)N[C@@H](Cc2ccc(O)cc2)C(=O)N[C@@H](CC(C)C)C(=O)N[C@H](C(=O)NCC(N)=O)CSCC(=O)N[C@@H](Cc2cc(F)c(F)c(F)c2)C(=O)N(C)[C@@H](Cc2ccccc2)C(=O)N1C [Example 3195] ({CH2CO}-[Phe(3,4,5-F3)][NMeF][NMeNle][d(cisHyp)][Pro(4R-NH2)]V[NMeF]Y[dAze]WYLCG-NH2; thioether N-13) |
| – | 6.76 to 30.3 nM | – | – | 4.78 to 72.9 nM | CCCC[C@H]1C(=O)N(C)CC(=O)N[C@@H](CCCNC(=N)N)C(=O)N[C@@H](C(C)C)C(=O)N(C)[C@@H](Cc2ccccc2)C(=O)N[C@@H](Cc2ccc(O)cc2)C(=O)N(C)CC(=O)N[C@@H](Cc2c[nH]c3ccccc23)C(=O)N[C@@H](Cc2ccc(O)cc2)C(=O)N[C@@H](CC(C)C)C(=O)N[C@H](C(=O)NCC(N)=O)CSCC(=O)N[C@@H](Cc2ccccc2)C(=O)N(C)[C@@H](Cc2ccccc2)C(=O)N1C [Example 3501] (HELM PEPTIDE1{[O=C(C[*:3])[*:2]].F.[meF].[CCCC[C@@H](C(=O)[*:2])N(C)[*:1]].[Sar].R.V.[meF].Y.[Sar].W.Y.L.C.G.[am]}$PEPTIDE1,PEPTIDE1,1:R3-14:R3$$$V2.0) |
